What was measured:
Assay in all cases: combination Emax (second highest fraction inhibited in the dose matrix, 72 h); higher = more inhibition; extreme values may be limits of the assay
[1] = tested on: HCC2998 (Colorectal Carcinoma)
How it was run: (§1)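 Cell lines in DMEM/F12 or RPMI with 10% FBS were plated in 1536-well plates, held 24 hours at 37°C, 5% CO2, then given two-drug dose matrices for 72 hours (DMSO typically 0.2%). Viability was read by CellTiter-Glo 2.0 luminescence and scaled as inhibition from 0 (vehicle wells) to 1 (blank wells). Combination Emax is the second-highest inhibition in the matrix; Bliss excess is observed combination effect minus expected EA + EB − EA·EB, EA and EB being single-agent effects.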

[2] = tested on: EFO-21 (Ovarian Carcinoma)
How it was run: as §1

[3] = tested on: DU-145 (Prostate Carcinoma)
How it was run: as §1

[4] = tested on: NCI-H522 (Lung Adenocarcinoma)
How it was run: as §1

[5] = tested on: COLO-668 (Small Cell Lung Carcinoma)
How it was run: as §1

[6] = tested on: SW982 (Other Solid Carcinomas)
How it was run: as §1

[7] = tested on: Ca-Ski (Cervical Carcinoma)
How it was run: as §1

[8] = tested on: LC-1-sq (Squamous Cell Lung Carcinoma)
How it was run: as §1

[9] = tested on: ALL-SIL (T-Lymphoblastic Leukemia)
How it was run: as §1

[10] = tested on: Mo-T (Other Blood Carcinomas)
How it was run: as §1

[11] = tested on: CADO-ES1 (Ewing's Sarcoma)
How it was run: as §1

[12] = tested on: EJM (Plasma Cell Myeloma)
How it was run: as §1

[13] = tested on: ML-2 (Acute Myeloid Leukemia)
How it was run: as §1

[14] = tested on: G-401 (Other Solid Carcinomas)
How it was run: as §1

[15] = tested on: OE33 (Esophageal Adenocarcinoma)
How it was run: as §1

Hey (Ovarian Carcinoma) = tested on: Hey (Ovarian Carcinoma)
How it was run: as §1

SK-N-AS (Neuroblastoma) = tested on: SK-N-AS (Neuroblastoma)
How it was run: as §1

[16] = tested on: NCI-H1355 (Lung Adenocarcinoma)
How it was run: as §1

[17] = tested on: SKN (Other Solid Carcinomas)
How it was run: as §1

[18] = tested on: KMRC-1 (Kidney Carcinoma)
How it was run: as §1

Row | SMILES | combination Emax [1] | combination Emax [2] | combination Emax [3] | combination Emax [4] | combination Emax [5] | combination Emax [6] | combination Emax [7] | combination Emax [8] | combination Emax [9] | combination Emax [10] | combination Emax [11] | combination Emax [12] | combination Emax [13] | combination Emax [14] | combination Emax [15] | combination Emax (Hey (Ovarian Carcinoma)) | combination Emax (SK-N-AS (Neuroblastoma)) | combination Emax [16] | combination Emax [17] | combination Emax [18]
1 | C=CCn1c(=O)c2cnc(Nc3ccc(N4CCN(C)CC4)cc3)nc2n1-c1cccc(C(C)(C)O)n1 [AZD1775] + O=C(c1cc(Cc2n[nH]c(=O)c3ccccc23)ccc1F)N1CCN(C(=O)C2CC2)CC1 [Olaparib] (first compound max 1 µM, partner max 10 µM) | 0.448 | 0.308 | 0.255 | 0.363 | 0.566 | 0.787 | 0.797 | 0.901 | 0.899 | 0.456 | 0.636 | 0.891 | 1 | 0.769 | 0.507 | 0.552 | 0.78 | 0.614 | 0.412 | 0.279
2 | CCN(CCO)CCCOc1ccc2c(Nc3cc(CC(=O)Nc4cccc(F)c4)[nH]n3)ncnc2c1 [AZD2811] + C=CCn1c(=O)c2cnc(Nc3ccc(N4CCN(C)CC4)cc3)nc2n1-c1cccc(C(C)(C)O)n1 [AZD1775] (first compound max 1 µM, partner max 1 µM) | 0.599 | 0.472 | 0.251 | 0.218 | 0.42 | 0.742 | 0.697 | 0.864 | 0.966 | 0.311 | 0.454 | 0.875 | 1 | 0.566 | 0.467 | 0.497 | 0.728 | 0.568 | 0.236 | 0.184
3 | CCN(CCO)CCCOc1ccc2c(Nc3cc(CC(=O)Nc4cccc(F)c4)[nH]n3)ncnc2c1 [AZD2811] + C[C@@H]1COCCN1C2=NC(=NC(=C2)C3(CC3)[S@](=N)(=O)C)C4=C5C=CNC5=NC=C4 [AZD6738] (first compound max 1 µM, 7x7, partner max 10 µM) | 0.777 | 0.45 | 0.596 | 0.142 | 0.644 | 0.71 | 0.607 | 0.823 | 0.981 | 0.556 | 0.843 | 0.858 | 0.985 | 0.536 | 0.8 | 0.711 | 0.784 | 0.679 | 0.393 | 0.566
4 | CCN(CCO)CCCOc1ccc2c(Nc3cc(CC(=O)Nc4cccc(F)c4)[nH]n3)ncnc2c1 [AZD2811] + O=C(c1cc(Cc2n[nH]c(=O)c3ccccc23)ccc1F)N1CCN(C(=O)C2CC2)CC1 [Olaparib] (first compound max 1 µM, 7x7, partner max 10 µM) | 0.247 | 0.203 | 0.199 | 0.221 | 0.178 | 0.658 | 0.289 | 0.305 | 0.953 | 0.369 | 0.531 | 0.167 | 0.835 | 0.496 | 0.127 | 0.319 | 0.249 | 0.318 | 0.127 | 0.19
5 | COc1nnc2ccc(N3CCC(c4ccc(OCCN5CCN(C)C(=O)[C@H]5C)cc4)CC3)nn12 [AZD5153] + C=CCn1c(=O)c2cnc(Nc3ccc(N4CCN(C)CC4)cc3)nc2n1-c1cccc(C(C)(C)O)n1 [AZD1775] (first compound max 1 µM, partner max 1 µM) | 0.92 | 0.51 | 0.316 | 0.51 | 0.665 | 0.825 | 0.791 | 0.665 | 0.98 | 0.729 | 0.387 | 0.867 | 1 | 0.914 | 0.435 | 0.655 | 0.669 | 0.57 | 0.687 | 0.358
6 | COc1nnc2ccc(N3CCC(c4ccc(OCCN5CCN(C)C(=O)[C@H]5C)cc4)CC3)nn12 [AZD5153] + CC1(C)CCC(CN2CCN(c3ccc(C(=O)NS(=O)(=O)c4ccc(NCC5CCOCC5)c([N+](=O)[O-])c4)c(Oc4cnc5[nH]ccc5c4)c3)CC2)=C(c2ccc(Cl)cc2)C1 [Venetoclax] (first compound max 1 µM, 7x7, partner max 1 µM) | 0.685 | 0.425 | 0.288 | 0.415 | 0.811 | 0.767 | 0.616 | 0.603 | 0.956 | 0.611 | 0.665 | 0.543 | 1 | 0.821 | 0.19 | 0.523 | 0.415 | 0.327 | 0.594 | 0.263
7 | COc1nnc2ccc(N3CCC(c4ccc(OCCN5CCN(C)C(=O)[C@H]5C)cc4)CC3)nn12 [AZD5153] + CCN(CCO)CCCOc1ccc2c(Nc3cc(CC(=O)Nc4cccc(F)c4)[nH]n3)ncnc2c1 [AZD2811] (first compound max 1 µM, 7x7, partner max 1 µM) | 0.752 | 0.425 | 0.265 | 0.344 | 0.264 | 0.807 | 0.591 | 0.609 | 1 | 0.599 | 0.248 | 0.613 | 1 | 0.806 | 0.301 | 0.618 | 0.447 | 0.509 | 0.608 | 0.316
8 | COc1nnc2ccc(N3CCC(c4ccc(OCCN5CCN(C)C(=O)[C@H]5C)cc4)CC3)nn12 [AZD5153] + C[C@@H]1COCCN1C2=NC(=NC(=C2)C3(CC3)[S@](=N)(=O)C)C4=C5C=CNC5=NC=C4 [AZD6738] (first compound max 1 µM, 7x7, partner max 10 µM) | 0.926 | 0.488 | 0.447 | 0.565 | 0.917 | 0.843 | 0.794 | 0.783 | 1 | 0.746 | 0.88 | 0.867 | 1 | 0.924 | 0.731 | 0.796 | 0.716 | 0.639 | 0.71 | 0.456
9 | COc1nnc2ccc(N3CCC(c4ccc(OCCN5CCN(C)C(=O)[C@H]5C)cc4)CC3)nn12 [AZD5153] + Cc1c2c(nn1C)CSCc1cc(n(C)n1)CSc1cc(c3ccccc3c1)OCCCc1c(C(=O)O)n(C)c3c-2c(Cl)ccc13 [AZD5991] (first compound max 1 µM, 7x7, partner max 1 µM) | 1 | 0.414 | 0.242 | 0.942 | 0.564 | 0.771 | 0.835 | 0.771 | 0.984 | 0.616 | 0.659 | 0.89 | 1 | 0.956 | 0.242 | 0.598 | 0.739 | 0.358 | 0.568 | 0.322
10 | COc1nnc2ccc(N3CCC(c4ccc(OCCN5CCN(C)C(=O)[C@H]5C)cc4)CC3)nn12 [AZD5153] + Cn1cnc2c(F)c(Nc3ccc(Br)cc3Cl)c(C(=O)NOCCO)cc21 [Selumetinib] (first compound max 1 µM, 7x7, partner max 10 µM) | 0.95 | 0.439 | 0.28 | 0.469 | 0.899 | 0.789 | 0.813 | 0.677 | 0.778 | 0.659 | 0.444 | 0.619 | 1 | 0.841 | 0.414 | 0.726 | 0.663 | 0.483 | 0.65 | 0.346
11 | Cc1c2c(nn1C)CSCc1cc(n(C)n1)CSc1cc(c3ccccc3c1)OCCCc1c(C(=O)O)n(C)c3c-2c(Cl)ccc13 [AZD5991] + C1CN(CCC1(C(=O)N[C@@H](CCO)C2=CC=C(C=C2)Cl)N)C3=NC=NC4=C3C=CN4 [Capivasertib] (first compound max 1 µM, 7x7, partner max 3 µM) | 0.902 | 0.179 | 0.187 | 0.507 | 0.303 | 0.192 | 0.609 | 0.217 | 1 | 0.281 | 0.927 | 0.977 | 1 | 0.56 | 0.112 | 0.156 | 0.692 | 0.227 | 0.455 | 0.432
12 | Cc1c2c(nn1C)CSCc1cc(n(C)n1)CSc1cc(c3ccccc3c1)OCCCc1c(C(=O)O)n(C)c3c-2c(Cl)ccc13 [AZD5991] + C=CCn1c(=O)c2cnc(Nc3ccc(N4CCN(C)CC4)cc3)nc2n1-c1cccc(C(C)(C)O)n1 [AZD1775] (first compound max 1 µM, partner max 1 µM) | 0.962 | 0.552 | 0.373 | 0.516 | 0.464 | 0.798 | 0.816 | 0.851 | 1 | 0.562 | 0.925 | 1 | 1 | 0.901 | 0.573 | 0.59 | 0.964 | 0.57 | 0.436 | 0.275
13 | Cc1c2c(nn1C)CSCc1cc(n(C)n1)CSc1cc(c3ccccc3c1)OCCCc1c(C(=O)O)n(C)c3c-2c(Cl)ccc13 [AZD5991] + CC1(C)CCC(CN2CCN(c3ccc(C(=O)NS(=O)(=O)c4ccc(NCC5CCOCC5)c([N+](=O)[O-])c4)c(Oc4cnc5[nH]ccc5c4)c3)CC2)=C(c2ccc(Cl)cc2)C1 [Venetoclax] (first compound max 1 µM, 7x7, partner max 1 µM) | 0.893 | 0.207 | 0.149 | 0.443 | 0.686 | 0.192 | 0.682 | 0.322 | 1 | 0.196 | 0.911 | 0.959 | 1 | 0.565 | 0.21 | 0.133 | 0.871 | 0.188 | 0.177 | 0.289

— the supplement of paper PMC11061612
